Results published in PubChem BioAssay (NCI).
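These data come from cells grown in 96-well plates and exposed to compound for 48 hours at five concentrations. TGI marks complete inhibition of growth.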

What was measured:
Test in all cases: NCI anticancer screen, dose series, 48 h
786-0 renal = test system: 786-0 renal
A498 renal = test system: A498 renal
A549 NSCLC = test system: A549 NSCLC
ACHN renal = test system: ACHN renal
BT-549 breast = test system: BT-549 breast
CAKI-1 renal = test system: CAKI-1 renal
COLO 205 colon = test system: COLO 205 colon
DLD-1 colon = test system: DLD-1 colon
DMS 114 small cell lung = test system: DMS 114 small cell lung
DMS 273 small cell lung = test system: DMS 273 small cell lung
DU-145 prostate = test system: DU-145 prostate
EKVX NSCLC = test system: EKVX NSCLC
HCC-2998 colon = test system: HCC-2998 colon
HCT-116 colon = test system: HCT-116 colon
HCT-15 colon = test system: HCT-15 colon
HL-60(TB) leukemia = test system: HL-60(TB) leukemia
HOP-18 NSCLC = test system: HOP-18 NSCLC
HOP-62 NSCLC = test system: HOP-62 NSCLC
HOP-92 NSCLC = test system: HOP-92 NSCLC
HS 578T breast = test system: HS 578T breast
HT29 colon = test system: HT29 colon
IGROV1 ovarian = test system: IGROV1 ovarian
K-562 leukemia = test system: K-562 leukemia
KM12 colon = test system: KM12 colon
KM20L2 colon = test system: KM20L2 colon
LOX IMVI melanoma = test system: LOX IMVI melanoma
LXFL 529 NSCLC = test system: LXFL 529 NSCLC
M14 melanoma = test system: M14 melanoma
M19-MEL melanoma = test system: M19-MEL melanoma
MALME-3M melanoma = test system: MALME-3M melanoma
MCF7 breast = test system: MCF7 breast
MDA-MB-231 breast = test system: MDA-MB-231 breast
MDA-MB-435 = test system: MDA-MB-435
MDA-N = test system: MDA-N
MOLT-4 leukemia = test system: MOLT-4 leukemia
NCI-H226 lung = test system: NCI-H226 lung
NCI-H23 lung = test system: NCI-H23 lung
NCI-H460 lung = test system: NCI-H460 lung
NCI-H522 lung = test system: NCI-H522 lung
OVCAR-3 ovarian = test system: OVCAR-3 ovarian
OVCAR-4 ovarian = test system: OVCAR-4 ovarian
OVCAR-5 ovarian = test system: OVCAR-5 ovarian
OVCAR-8 ovarian = test system: OVCAR-8 ovarian
PC-3 prostate = test system: PC-3 prostate
RPMI-8226 leukemia = test system: RPMI-8226 leukemia
RXF 393 renal = test system: RXF 393 renal
RXF-631 renal = test system: RXF-631 renal
SF-268 CNS = test system: SF-268 CNS
SF-295 CNS = test system: SF-295 CNS
SF-539 CNS = test system: SF-539 CNS
SK-MEL-2 melanoma = test system: SK-MEL-2 melanoma
SK-MEL-28 melanoma = test system: SK-MEL-28 melanoma
SK-MEL-5 melanoma = test system: SK-MEL-5 melanoma
SK-OV-3 ovarian = test system: SK-OV-3 ovarian
SN12C renal = test system: SN12C renal
SNB-19 CNS = test system: SNB-19 CNS
SNB-75 CNS = test system: SNB-75 CNS
SNB-78 CNS = test system: SNB-78 CNS
SR leukemia = test system: SR leukemia
SW-620 colon = test system: SW-620 colon
T-47D breast = test system: T-47D breast
TK-10 renal = test system: TK-10 renal
U251 CNS = test system: U251 CNS
UACC-257 melanoma = test system: UACC-257 melanoma
UACC-62 melanoma = test system: UACC-62 melanoma
UO-31 renal = test system: UO-31 renal
CCRF-CEM leukemia = test system: CCRF-CEM leukemia
NCI/ADR-RES ovarian = test system: NCI/ADR-RES ovarian

Question: What does the source list for `O=C1C=CC(=O)c2ccc(=O)ccc21`?
Answer: TGI (786-0 renal): 32.8 µM; TGI (A498 renal): 41.6 µM; TGI (A549 NSCLC): 64.2 µM; TGI (ACHN renal): 23.5 µM; TGI (BT-549 breast): 31.9 µM; TGI (CAKI-1 renal): 21 µM; TGI (COLO 205 colon): 18.9 µM; TGI (DLD-1 colon): 15.6 µM; TGI (DMS 114 small cell lung): 33.9 µM; TGI (DMS 273 small cell lung): 58.1 µM; TGI (DU-145 prostate): 59.9 µM; TGI (EKVX NSCLC): 50.7 µM; TGI (HCC-2998 colon): 31.3 µM; TGI (HCT-116 colon): 31.6 µM; TGI (HCT-15 colon): 35.8 µM; TGI (HL-60(TB) leukemia): 15.8 µM; TGI (HOP-18 NSCLC): 39.1 µM; TGI (HOP-62 NSCLC): 51.5 µM; TGI (HOP-92 NSCLC): 3.72 µM; TGI (HS 578T breast): > 100 µM; TGI (HT29 colon): 50.5 µM; TGI (IGROV1 ovarian): 33.6 µM; TGI (K-562 leukemia): 14.6 µM; TGI (KM12 colon): 37.4 µM; TGI (KM20L2 colon): 46.2 µM; TGI (LOX IMVI melanoma): > 54.1 µM; TGI (LXFL 529 NSCLC): 11.1 µM; TGI (M14 melanoma): 31.1 µM; TGI (M19-MEL melanoma): 25.5 µM; TGI (MALME-3M melanoma): 39.6 µM; TGI (MCF7 breast): > 100 µM; TGI (MDA-MB-231 breast): 45.5 µM; TGI (MDA-MB-435): 46 µM; TGI (MDA-N): 28.8 µM; TGI (MOLT-4 leukemia): 5.69 µM; TGI (NCI-H226 lung): 58.9 µM; TGI (NCI-H23 lung): 45.5 µM; TGI (NCI-H460 lung): 43.2 µM; TGI (NCI-H522 lung): 5.82 µM; TGI (OVCAR-3 ovarian): 26.7 µM; TGI (OVCAR-4 ovarian): 27.8 µM; TGI (OVCAR-5 ovarian): 35 µM; TGI (OVCAR-8 ovarian): 64.5 µM; TGI (PC-3 prostate): 33 µM; TGI (RPMI-8226 leukemia): > 29.7 µM; TGI (RXF 393 renal): 16.3 µM; TGI (RXF-631 renal): 42.3 µM; TGI (SF-268 CNS): 32.9 µM; TGI (SF-295 CNS): 37.1 µM; TGI (SF-539 CNS): 43.5 µM; TGI (SK-MEL-2 melanoma): 34.8 µM; TGI (SK-MEL-28 melanoma): 42.6 µM; TGI (SK-MEL-5 melanoma): 38.3 µM; TGI (SK-OV-3 ovarian): 48.8 µM; TGI (SN12C renal): 32.2 µM; TGI (SNB-19 CNS): 27.1 µM; TGI (SNB-75 CNS): 39 µM; TGI (SNB-78 CNS): 64.5 µM; TGI (SR leukemia): 6.3 µM; TGI (SW-620 colon): 14.4 µM; TGI (T-47D breast): 5.55 µM; TGI (TK-10 renal): 33.9 µM; TGI (U251 CNS): 30.1 µM; TGI (UACC-257 melanoma): 30.4 µM; TGI (UACC-62 melanoma): 29.9 µM; TGI (UO-31 renal): 22.1 µM

Question: For `O=C(/C=C/c1ccc(OCCSCCCCCCCCCCSCCOc2ccc(/C=C/C(=O)c3ccc(Cl)cc3)cc2)cc1)c1ccc(Cl)cc1`, which TGI (786-0 renal) is on record?
Answer: > 100 µM

Question: What about the TGI (A498 renal) of the same compound?
Answer: > 100 µM

Question: And the TGI (A549 NSCLC)?
Answer: > 100 µM

Question: What about the TGI (ACHN renal) of the same compound?
Answer: > 100 µM

Question: What about the TGI (BT-549 breast) of the same compound?
Answer: > 100 µM

Question: What about the TGI (CAKI-1 renal) of the same compound?
Answer: > 100 µM

Question: And the TGI (CCRF-CEM leukemia)?
Answer: > 100 µM

Question: And the TGI (COLO 205 colon)?
Answer: > 100 µM

Question: What about the TGI (DLD-1 colon) of the same compound?
Answer: > 100 µM

Question: What about the TGI (DMS 114 small cell lung) of the same compound?
Answer: > 100 µM

Question: And the TGI (DMS 273 small cell lung)?
Answer: > 100 µM

Question: What about the TGI (DU-145 prostate) of the same compound?
Answer: > 100 µM

Question: What about the TGI (EKVX NSCLC) of the same compound?
Answer: > 100 µM

Question: What about the TGI (HCC-2998 colon) of the same compound?
Answer: > 100 µM

Question: What about the TGI (HCT-116 colon) of the same compound?
Answer: > 100 µM

Question: What about the TGI (HCT-15 colon) of the same compound?
Answer: > 100 µM

Question: What about the TGI (HL-60(TB) leukemia) of the same compound?
Answer: > 100 µM

Question: And the TGI (HOP-18 NSCLC)?
Answer: > 100 µM

Question: What about the TGI (HOP-62 NSCLC) of the same compound?
Answer: 95.4 µM

Question: What about the TGI (HOP-92 NSCLC) of the same compound?
Answer: 81.6 µM

Question: And the TGI (HS 578T breast)?
Answer: > 100 µM

Question: And the TGI (HT29 colon)?
Answer: > 100 µM

Question: What about the TGI (IGROV1 ovarian) of the same compound?
Answer: > 100 µM

Question: What about the TGI (K-562 leukemia) of the same compound?
Answer: > 100 µM

Question: What about the TGI (KM12 colon) of the same compound?
Answer: > 100 µM

Question: And the TGI (KM20L2 colon)?
Answer: > 100 µM

Question: And the TGI (LOX IMVI melanoma)?
Answer: > 100 µM

Question: What about the TGI (LXFL 529 NSCLC) of the same compound?
Answer: > 100 µM

Question: What about the TGI (M14 melanoma) of the same compound?
Answer: > 100 µM

Question: What about the TGI (M19-MEL melanoma) of the same compound?
Answer: > 100 µM

Question: And the TGI (MALME-3M melanoma)?
Answer: > 100 µM

Question: What about the TGI (MCF7 breast) of the same compound?
Answer: > 100 µM

Question: And the TGI (MDA-MB-231 breast)?
Answer: > 100 µM

Question: And the TGI (MDA-MB-435)?
Answer: > 100 µM

Question: And the TGI (MDA-N)?
Answer: > 100 µM

Question: What about the TGI (MOLT-4 leukemia) of the same compound?
Answer: > 100 µM

Question: What about the TGI (NCI-H226 lung) of the same compound?
Answer: > 100 µM

Question: And the TGI (NCI-H23 lung)?
Answer: > 100 µM

Question: And the TGI (NCI-H460 lung)?
Answer: > 100 µM

Question: What about the TGI (NCI-H522 lung) of the same compound?
Answer: > 100 µM

Question: And the TGI (NCI/ADR-RES ovarian)?
Answer: > 100 µM

Question: What about the TGI (OVCAR-3 ovarian) of the same compound?
Answer: > 100 µM

Question: What about the TGI (OVCAR-4 ovarian) of the same compound?
Answer: > 100 µM

Question: And the TGI (OVCAR-5 ovarian)?
Answer: > 100 µM

Question: What about the TGI (OVCAR-8 ovarian) of the same compound?
Answer: > 100 µM

Question: And the TGI (PC-3 prostate)?
Answer: > 100 µM

Question: And the TGI (RPMI-8226 leukemia)?
Answer: > 100 µM

Question: What about the TGI (RXF 393 renal) of the same compound?
Answer: > 80.6 µM

Question: And the TGI (RXF-631 renal)?
Answer: > 100 µM

Question: What about the TGI (SF-268 CNS) of the same compound?
Answer: > 100 µM

Question: What about the TGI (SF-295 CNS) of the same compound?
Answer: > 97.6 µM

Question: And the TGI (SF-539 CNS)?
Answer: > 81.7 µM

Question: What about the TGI (SK-MEL-2 melanoma) of the same compound?
Answer: > 100 µM

Question: What about the TGI (SK-MEL-28 melanoma) of the same compound?
Answer: > 100 µM

Question: And the TGI (SK-MEL-5 melanoma)?
Answer: > 100 µM

Question: And the TGI (SK-OV-3 ovarian)?
Answer: > 92.8 µM

Question: What about the TGI (SN12C renal) of the same compound?
Answer: > 100 µM

Question: And the TGI (SNB-19 CNS)?
Answer: > 100 µM

Question: And the TGI (SNB-75 CNS)?
Answer: 63.3 µM

Question: What about the TGI (SNB-78 CNS) of the same compound?
Answer: > 100 µM

Question: And the TGI (SR leukemia)?
Answer: > 100 µM

Question: And the TGI (SW-620 colon)?
Answer: > 100 µM

Question: What about the TGI (T-47D breast) of the same compound?
Answer: > 100 µM

Question: And the TGI (TK-10 renal)?
Answer: > 100 µM

Question: What about the TGI (U251 CNS) of the same compound?
Answer: > 100 µM

Question: What about the TGI (UACC-257 melanoma) of the same compound?
Answer: > 100 µM

Question: And the TGI (UACC-62 melanoma)?
Answer: > 100 µM

Question: What about the TGI (UO-31 renal) of the same compound?
Answer: > 100 µM
